Our source for the IC50 values is patent publication US20060142321A1, “5-HT7 receptor antagonists” (priority 2004, published 2006).

Counter-ions that a name gives are not always drawn.

This experiment has as its target T1, Cloned Human Serotonin Receptor, Subtype 7 (h5HT7) (Homo sapiens, UniProt P34969).
T1 construct: purchased PerkinElmer 6120512; host or cells: CHO cells (membranes coated on Basic FlashPlate SMP200)
The experiment is described as follows: Radioligand binding assay, [125I]LSD, cloned h5HT7 expressed in CHO cells (Flashplate). The settings on record: [125I]LSD 0.82 nM, room temperature, 240 minutes, read-out: 5-HT7 IC-50. The method, then:
Biological Assays Radioligand Binding
Radioligand binding assays were performed using the Cloned Human Serotonin Receptor, Subtype 7 (h5HT7), expressed in CHO cells, coated on Flashplate (Basic FlashPlate Cat.: SMP200) from PerkinElmer (Cat.: 6120512). The protocol assay was essentially the recommended protocol in the Technical Data Sheet by PerkinEmer Life and Analytical Sciences. The Mass membrane protein/well was typically 12 μg and the Receptor/well was about 9-10 fmoles. The Flashplate were let equilibrate at room temperature for one hour before the addition of the components of the assay mixture. The binding buffer was: 50 mM Tris-HCl, pH 7.4, containing 10 mM MgCl2, 0.5 mM EDTA and 0.5% BSA. The radioligand was [^125I]LSD at a final concentration of 0.82 nM. Nonspecific binding was determined with 50 μM of Clozapine. The assay volume was 25 μl. TopSeal-A were applied onto Flashplate microplates and they were incubated at room temperature for 240 minutes in darkness. The radioactivity were quantified by liquid scintillation spectrophotometry (Wallac 1450 Microbeta Trilux) with a count delay of 4 minutes prior to counting and a counting time of 30 seconds per well. Competition binding data were analyzed by using the LIGAND program (Munson and Rodbard, LIGAND: A versatile, computerized approach for characterization of ligand-binding systems. Anal. Biochem. 107: 220-239, 1980) and assays were performed in triplicate determinations for each point.

T1 sequence (P34969 whole entry): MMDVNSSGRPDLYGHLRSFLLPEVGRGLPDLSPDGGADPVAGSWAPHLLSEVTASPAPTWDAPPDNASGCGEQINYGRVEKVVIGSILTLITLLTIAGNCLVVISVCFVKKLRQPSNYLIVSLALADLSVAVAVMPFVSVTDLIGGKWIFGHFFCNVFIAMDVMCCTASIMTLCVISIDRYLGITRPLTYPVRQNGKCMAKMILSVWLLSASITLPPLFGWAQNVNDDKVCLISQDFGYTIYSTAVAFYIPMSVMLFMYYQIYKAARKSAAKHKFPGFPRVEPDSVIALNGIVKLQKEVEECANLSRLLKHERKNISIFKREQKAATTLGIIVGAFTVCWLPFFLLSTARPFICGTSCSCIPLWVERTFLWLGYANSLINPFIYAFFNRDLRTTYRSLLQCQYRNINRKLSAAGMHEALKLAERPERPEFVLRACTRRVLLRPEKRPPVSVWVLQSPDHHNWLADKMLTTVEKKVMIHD

In the case of `Cc1cc(S(=O)(=O)NCCCCN2CCc3cccc4c3C2CC4)c(C)cc1Cl` (stereo not shown) [Compound 7, 4-Chloro-2,5-dimethyl-N-[4-(2,2a,4-5-tetrahydro-1H-3-aza-acenaphthylen-3-yl)-butyl]-benzenesulfonamide hydrochloride], the IC50 was determined as 79.2 nM.

For `O=S(=O)(NCCCN1CCc2cccc3c2C1CC3)c1cc(Cl)ccc1Cl` (stereo not shown) [Compound 15, 2,5-Dichloro-N-[3-(2,2a,4-5-tetrahydro-1H-3-aza-acenaphthylen-3-yl)-propyl]-benzenesulfonamide hydrochloride], the IC50 is 142 nM.

With `COc1cc2c3c(c1OC)CCC3N(CCCNS(=O)(=O)c1cc(Cl)ccc1Cl)CC2` (stereo not shown) [Compound 56, 2,5-Dichloro-N-[3-(7,8-dimethoxy-2,2a,4-5-tetrahydro-1H-3-aza-acenaphthylen-3-yl)-propyl]-benzene sulfonamide hydrochloride], the IC50 is 156 nM. In the case of `COc1cc2c3c(c1OC)CCC3N(CCCNS(=O)(=O)c1cc(F)c(F)cc1Cl)CC2` (stereo not shown) [Compound 58, 2-Chloro-N-[3-(7,8-dimethoxy-2,2a,4-5-tetrahydro-1H-3-aza-acenaphthylen-3-yl)-propyl]-4,5-difluoro-benzene sulfonamide hydrochloride], the IC50 turned out to be 189 nM.
